What was measured:
Assay type in all cases: in vivo
[1] = Experiment 1 sensory evaluation of “boosting of flavor” (cyclic dipeptides, coriander); conditions: for “boosting of flavor” Average: cyclic dipeptide aqueous solution (concentration as in heat-treated coriander) at final 0.2% (w/w) in reduced-sodium curry roux dispersion, score 1-5; for “boosting of flavor” Evaluation: cyclic dipeptide aqueous solution at final 0.2% (w/w) in reduced-sodium curry roux dispersion, class of average score; for “boosting of flavor” in words: added to reduced-sodium curry roux dispersion, compared with no addition, unheated coriander or common curry roux
Protocol: Flour roux was prepared by putting 20 g of flour and 30 g of beef tallow in a pan, then heating with stirring at 120° C. To this flour roux were added 10 g of sodium chloride, 10 g of sugar, 10 g of cornstarch, 5 g of curry powder and 15 g of other seasoning ingredients (vegetable and fruit extracts, yeast extract and seafood extract), and after heat-treatment to 105° C., the mixture was cooled and solidified, to form a block of common curry roux.
The sodium chloride equivalent per 100 g of this curry roux was 10.6 g.
Reduced-sodium curry roux was prepared according to the same procedure, except that the amount of sodium chloride was reduced to 7 g from the amount in the common curry roux in (1).
The sodium chloride equivalent per 100 g of this reduced-sodium curry roux was 7.7 g.
Out of the cyclic dipeptides included in the heat-treated coriander prepared in 1.1. described above, which were confirmed to be increased in 1.2. above, an aqueous solution of the respective 14 cyclic dipeptides shown in the table described below was prepared. The concentration of the cyclic dipeptide in each aqueous solution was set to be equal to its concentration in the heat-treated coriander prepared in 1.1. described above, which was estimated from the ratio of the peak area of the cyclic dipeptide to the peak area of the internal standard (47 μg/g L-lysine-^13C6 monohydrochloride) confirmed in 1.2. described above.
Two dispersions of 44 g of the reduced-sodium curry roux in (2) dispersed in 300 g of hot water were prepared.
To one of them was added the heat-treated coriander or the powdered unheated coriander prepared in 1.1. described above, or the cyclic dipeptide aqueous solution (corresponding to the heat-treated coriander) prepared in (3) above, so that the final concentration was 0.2% (w/w), and a sensory evaluation was carried out.
Forty-four grams of the common curry roux in (1) was dispersed in 300 g of hot water.
The dispersion of reduced-sodium curry roux dispersed in hot water and the dispersion of common curry roux dispersed in hot water were used as comparative controls, and the strength of the flavor was evaluated by four evaluators on the basis of the following evaluation criteria from the viewpoint of “boosting of flavor.” The term “boosting of flavor” in this experiment is an effect concerted by the combination of sodium chloride and other foodstuffs in curry roux, and is an aspect of “saltiness.” Thus, the “flavor” in this experiment can be also expressed as “saltiness.”
The average of the evaluated scores was defined as “F” when it was 1.0 or lower, “C” when it was 1.1 or higher and 1.9 or lower, “B” when it was 2.0 or higher and 2.5 or lower, “A” when it was 2.6 or higher and 2.9 or lower, and “AA” when it was 3.0 or higher.

[2] = Experiment 6 sensory evaluation of cyclic dipeptides, “top sharp saltiness”
How it was run: (§1)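 Reduced-sodium curry roux (44 g in 300 g hot water) was spiked with cyclic dipeptide solutions matching heat-treated coriander or paprika levels, at 0.5% or 1.0% (w/w) final. Three evaluators scored each sample against unspiked reduced-sodium and common roux. Mean scores were graded F to AA.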

[3] = Experiment 6 sensory evaluation of cyclic dipeptides, “middle fullness (enhanced thickness)”
How it was run: as §1

[4] = Experiment 6 sensory evaluation of cyclic dipeptides, “boosting of last flavor (aftertaste)”
How it was run: as §1

[5] = Additive amount coriander 0.5% (heat-treated coriander equivalent aqueous solution, final 0.5% (w/w)), reduced-sodium curry roux
[6] = Additive amount coriander 0.5%, reduced-sodium curry roux
[7] = heat-treated coriander equivalent aqueous solution of cyclic dipeptide, final 1.0% (w/w) in reduced-sodium curry roux dispersion
[8] = heat-treated coriander equivalent aqueous solution of cyclic dipeptide, final 1.0% (w/w) in reduced-sodium curry roux dispersion, 3 evaluators
[9] = Additive amount paprika 0.5% (heat-treated paprika equivalent aqueous solution, final 0.5% (w/w)), reduced-sodium curry roux
[10] = Additive amount paprika 0.5%, reduced-sodium curry roux
[11] = heat-treated paprika equivalent aqueous solution of cyclic dipeptide, final 1.0% (w/w) in reduced-sodium curry roux dispersion
[12] = heat-treated paprika equivalent aqueous solution of cyclic dipeptide, final 1.0% (w/w) in reduced-sodium curry roux dispersion, 3 evaluators

Row | Substance | “boosting of flavor” Average [1] | “boosting of flavor” Evaluation [1] | Top sharp saltiness Average [2, 5] | Top sharp saltiness Evaluation [2, 6] | Top sharp saltiness Evaluation [2, 7] | Top sharp saltiness Average [2, 8] | Middle fullness Average [3, 6] | Middle fullness Evaluation [3, 6] | Middle fullness Evaluation [3, 7] | Middle fullness Average [3, 8] | Bosting of last flavor Average [4, 6] | Bosting of last flavor Evaluation [4, 6] | Bosting of last flavor Evaluation [4, 7] | Bosting of last flavor Average [4, 8] | Top sharp saltiness Average [2, 9] | Top sharp saltiness Evaluation [2, 10] | Top sharp saltiness Evaluation [2, 11] | Top sharp saltiness Average [2, 12] | Middle fullness Average [3, 10] | Middle fullness Evaluation [3, 10] | further results
1 | cyclic (Arg-Pro) [Coriander ID 45] | 2.0 points | B (“B” when it was 2.0 or higher and 2.5 or lower) | 2.0 points | B (“B” when it was 2.0 or higher and 2.5 or lower) | C (“C” when it was 1.1 or higher and 1.9 or lower) | 1.8 points | 2.5 points | B (“B” when it was 2.0 or higher and 2.5 or lower) | B (“B” when it was 2.0 or higher and 2.5 or lower) | 2.0 points | 2.8 points | A (“A” when it was 2.6 or higher and 2.9 or lower) | B (“B” when it was 2.0 or higher and 2.5 or lower) | 2.2 points |  |  |  |  |  |  | 
2 | cyclic (Gly-Val) [Coriander ID 21] | 2.3 points | B (“B” when it was 2.0 or higher and 2.5 or lower) |  |  |  |  |  |  |  |  |  |  |  |  | 2.3 points | B (“B” when it was 2.0 or higher and 2.5 or lower) | C (“C” when it was 1.1 or higher and 1.9 or lower) | 1.7 points | 2.3 points | B (“B” when it was 2.0 or higher and 2.5 or lower) | Middle fullness Evaluation [3, 11]: B (“B” when it was 2.0 or higher and 2.5 or lower); Middle fullness Average [3, 12]: 2.0 points; Bosting of last flavor Average [4, 10]: 2.5 points; Bosting of last flavor Evaluation [4, 10]: B (“B” when it was 2.0 or higher and 2.5 or lower); Bosting of last flavor Evaluation [4, 11]: B (“B” when it was 2.0 or higher and 2.5 or lower); Bosting of last flavor Average [4, 12]: 2.2 points
3 | cyclic (Leu/Ile-Val) [Coriander ID 42] | 2.0 points | B (“B” when it was 2.0 or higher and 2.5 or lower) | 2.5 points | B (“B” when it was 2.0 or higher and 2.5 or lower) | B (“B” when it was 2.0 or higher and 2.5 or lower) | 2.0 points | 2.8 points | A (“A” when it was 2.6 or higher and 2.9 or lower) | A (“A” when it was 2.6 or higher and 2.9 or lower) | 2.7 points | 3.0 points | AA (“AA” when it was 3.0 or higher) | A (“A” when it was 2.6 or higher and 2.9 or lower) | 2.7 points |  |  |  |  |  |  | 
4 | cyclic (Phe-Ala) [Coriander ID 33] | 3.0 points | AA (“AA” when it was 3.0 or higher) | 2.3 points | B (“B” when it was 2.0 or higher and 2.5 or lower) | B (“B” when it was 2.0 or higher and 2.5 or lower) | 2.0 points | 2.5 points | B (“B” when it was 2.0 or higher and 2.5 or lower) | B (“B” when it was 2.0 or higher and 2.5 or lower) | 2.5 points | 2.5 points | B (“B” when it was 2.0 or higher and 2.5 or lower) | B (“B” when it was 2.0 or higher and 2.5 or lower) | 2.5 points |  |  |  |  |  |  | “boosting of flavor” in words [1]: comparable flavor to that of the dispersion of common curry roux
5 | cyclic (Phe-Pro) [Coriander ID 40] | 2.8 points | A (“A” when it was 2.6 or higher and 2.9 or lower) |  |  |  |  |  |  |  |  |  |  |  |  | 2.5 points | B (“B” when it was 2.0 or higher and 2.5 or lower) | A (“A” when it was 2.6 or higher and 2.9 or lower) | 2.7 points | 2.3 points | B (“B” when it was 2.0 or higher and 2.5 or lower) | Middle fullness Evaluation [3, 11]: AA (“AA” when it was 3.0 or higher); Middle fullness Average [3, 12]: 3.2 points; Bosting of last flavor Average [4, 10]: 2.3 points; Bosting of last flavor Evaluation [4, 10]: B (“B” when it was 2.0 or higher and 2.5 or lower); Bosting of last flavor Evaluation [4, 11]: AA (“AA” when it was 3.0 or higher); Bosting of last flavor Average [4, 12]: 3.0 points
6 | cyclic (Pro-His) [Coriander ID 15] | 3.0 points | AA (“AA” when it was 3.0 or higher) | 2.2 points | B (“B” when it was 2.0 or higher and 2.5 or lower) | B (“B” when it was 2.0 or higher and 2.5 or lower) | 2.0 points | 2.5 points | B (“B” when it was 2.0 or higher and 2.5 or lower) | AA (“AA” when it was 3.0 or higher) | 3.0 points | 2.5 points | B (“B” when it was 2.0 or higher and 2.5 or lower) | AA (“AA” when it was 3.0 or higher) | 3.0 points |  |  |  |  |  |  | “boosting of flavor” in words [1]: comparable flavor to that of the dispersion of common curry roux
7 | cyclic (Pro-Met) [Coriander ID 53] | 2.3 points | B (“B” when it was 2.0 or higher and 2.5 or lower) | 3.0 points | AA (“AA” when it was 3.0 or higher) | AA (“AA” when it was 3.0 or higher) | 3.0 points | 3.2 points | AA (“AA” when it was 3.0 or higher) | AA (“AA” when it was 3.0 or higher) | 3.0 points | 3.0 points | AA (“AA” when it was 3.0 or higher) | AA (“AA” when it was 3.0 or higher) | 3.8 points |  |  |  |  |  |  | 
8 | cyclic (Pro-Val) [Coriander ID 29] | 3.0 points | AA (“AA” when it was 3.0 or higher) |  |  |  |  |  |  |  |  |  |  |  |  | 2.5 points | B (“B” when it was 2.0 or higher and 2.5 or lower) | B (“B” when it was 2.0 or higher and 2.5 or lower) | 2.2 points | 2.3 points | B (“B” when it was 2.0 or higher and 2.5 or lower) | “boosting of flavor” in words [1]: comparable flavor to that of the dispersion of common curry roux; Middle fullness Evaluation [3, 11]: B (“B” when it was 2.0 or higher and 2.5 or lower); Middle fullness Average [3, 12]: 2.3 points; Bosting of last flavor Average [4, 10]: 2.2 points; Bosting of last flavor Evaluation [4, 10]: B (“B” when it was 2.0 or higher and 2.5 or lower); Bosting of last flavor Evaluation [4, 11]: B (“B” when it was 2.0 or higher and 2.5 or lower); Bosting of last flavor Average [4, 12]: 2.3 points

Reference: patent publication US20260231994A1, “TASTE-ENHANCING COMPOSITION, METHOD FOR PRODUCING SAME, FOOD PRODUCT, AND METHOD FOR ENHANCING TASTE OF FOOD PRODUCT” (HOUSE FOODS GROUP INC., priority 2023, published 2026)
